The text below walks through data of patent US20090181986A1, “SUBSTITUTED HETEROCYCLIC COMPOUNDS” (priority 2007, published 2009).

For one series, the target named is hERG potassium channel (Homo sapiens, UniProt Q12809). Put plainly: hERG screening assay (PatchXpress patch clamp, CHO cells). On the technique in general: The hERG channel carries a current that helps repolarise heart muscle cells.
The target of series [1] is T1, wild-type human cardiac sodium channel, hNav1.5 (Homo sapiens, UniProt Q14524). Put plainly: Late INa screening assay (PatchXpress whole cell patch clamp, late current generated with Tefluthrin or ATX II). The settings on record: for Late INa % blk / inhibition at 10 µM: test compound at 10 μM; for inhibition at 10 µM: read-out: Late INa % blk; for effect on late sodium current: late INa assay, compounds tested at 10 μM. Format: cell-based. The procedure: (§1) The late sodium current (Late INa) and peak sodium current (Peak INa) assays are performed on an automated electrophysiology platform, PatchXpress 7000A (MDS Analytical Technologies, Sunnyvale, Calif.), which uses the whole cell patch clump technique to measure currents through the cell membrane of up to 16 cells at a time. The assay uses an HEK293 (human embryonic kidney) cell line heterologously expressing the wild-type human cardiac sodium channel, hNav1.5, purchased from Millipore (Billerica, Mass.). No beta subunits were coexpressed with the Na channel alpha subunit. […] Experiments are carried out at 24-27° C.
(§2) For both the Late INa and Peak INa assays, series resistance compensation is set to 50% and whole-cell compensation is performed automatically. […] Currents through open sodium channels are automatically recorded and stored in the DataXpress2 database (MDS Analytical Technologies, Sunnyvale, Calif.). Analysis is performed using DataXpress2 analysis software and data are compiled in Excel.
Compound stocks are routinely made in glass vials to 10 mM in dimethyl sulfoxide (DMSO). In some cases, when compounds are not soluble in DMSO, they are made in 100% ethanol. Stocks are sonicated as necessary. The extracellular solution for screening Late INa is composed of: 140 mM NaCl, 4 mM KCl, 1.8 mM CaCl2, 0.75 mM MgCl2, and 5 mM HEPES with pH adjusted to 7.4 using NaOH. The extracellular solution for screening Peak INa is composed of: 20 mM NaCl, 120 mM N-methyl-D glucamine, 4 mM KCl, 1.8 mM CaCl2, 0.75 mM MgCl2, and 5 mM HEPES with pH adjusted to 7.4 using HCl. The intracellular solution used to perfuse the inside of the cells for both the Late INa and Peak INa assays contains: 120 mM CsF, […], 5 mM EGTA, 5 mM HEPES and pH adjusted to 7.4 with CsOH. […] The ONa extracellular solution used at the end of each experiment for the Late INa and Peak INa assays to measure baseline current contains: 140 mM N-methyl-D-glucamine; 4 mM KCl; 1.8 mM CaCl2; 0.75 mM MgCl2; 5 mM HEPES and pH was adjusted to 7.4 with HCl.
For the Late INa assay, sodium channels are activated every 10 seconds (0.1 Hz) by depolarizing the cell membrane to −20 mV for 250 milliseconds (ms) from a holding potential of −120 mV.
All compounds are tested to determine their activity in blocking the late sodium current. Late INa current is generated by adding 10 μM Tefluthrin (pyrethroid) to the extracellular solution while recording Na currents. […] For some experiments, 50 nM ATX II (sea anemone toxin), another late INa activator, was used to generate the late component. […] Baseline current in the absence of Na^+ ions is measured at the end of each experiment (after two additions of 0 Na solution—see above) and is used to calculate the percent block by compound.

The subject of another series is L-type calcium channel. Put plainly: L-type calcium channel activity well-plate assay (IMR-32 cells, Ca-4 dye, FlexStation). Format: cell-based, human. The gist of the method:
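IMR-32 human neuroblastoma cells seeded overnight at 200,000 cells/well, loaded 1 h at 37° with Ca-4 dye in HBSS/20 mM HEPES pH 7.4 with 2 mM probenecid.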

The target in series [2] is T1, wild-type human cardiac sodium channel, hNav1.5. Put plainly: Peak INa screening assay (tonic block and use-dependent block). Format: cell-based. The settings on record: test compound at 10 μM. The procedure:
as §1, §2
Compound stocks are routinely made in glass vials to 10 mM in dimethyl sulfoxide (DMSO). In some cases, when compounds are not soluble in DMSO, they are made in 100% ethanol. Stocks are sonicated as necessary. The extracellular solution for screening Late INa is composed of: 140 mM NaCl, 4 mM KCl, 1.8 mM CaCl2, 0.75 mM MgCl2, and 5 mM HEPES with pH adjusted to 7.4 using NaOH. The extracellular solution for screening Peak INa is composed of: 20 mM NaCl, 120 mM N-methyl-D glucamine, 4 mM KCl, 1.8 mM CaCl2, 0.75 mM MgCl2, and 5 mM HEPES with pH adjusted to 7.4 using HCl. The intracellular solution used to perfuse the inside of the cells for both the Late INa and Peak INa assays contains: 120 mM CsF, […], 5 mM EGTA, 5 mM HEPES and pH adjusted to 7.4 with CsOH. Compounds are diluted in extracellular solution to […] in glass vials and then transferred to glass well plates before robotic addition to the cells. The ONa extracellular solution used at the end of each experiment for the Late INa and Peak INa assays to measure baseline current contains: 140 mM N-methyl-D-glucamine; 4 mM KCl; 1.8 mM CaCl2; 0.75 mM MgCl2; 5 mM HEPES and pH was adjusted to 7.4 with HCl.
Compounds were also evaluated for their effect in several other assays, including their effect on Peak INa. In some cases, the effect on Peak INa was measured using data from the Late INa assay. […] Since the peak INa can be very large, introducing artifacts in the recording, the concentration of Na^+ in the bath is reduced to 20 mM and a nonpermeant cation is added to compensate for the Na^+ that was omitted from the standard extracellular solution (see above). The peak INa assay uses a holding potential of −100 mV and a 20 ms test pulse to 0 mV to activate the channel. As in the Late INa assay, stepping the voltage to 0 mV causes a rapid increase in negative Na current through hNav1.5 that inactivates within a few ms. No late INa activator is added for the peak assay.
For the separate peak INa assay, both tonic (TB) block and use-dependent (UDB) block of peak inward sodium current by 10 μM compound are determined. TB is block of the channel in the resting state, before the channel opens. TB is simulated in this assay by stimulating the channel to open at a low frequency (0.1 Hz). This is done in order to measure the control current amplitude and monitor current rundown, enabling correction for rundown in the calculation of percent block for TB.

Setting [3] is: tonic block, read-out: Tonic Peak INa % blk.
[4] abbreviates: use-dependent block, read-out: UDB Peak INa % blk.

Sequence of hERG potassium channel (Q12809 whole entry): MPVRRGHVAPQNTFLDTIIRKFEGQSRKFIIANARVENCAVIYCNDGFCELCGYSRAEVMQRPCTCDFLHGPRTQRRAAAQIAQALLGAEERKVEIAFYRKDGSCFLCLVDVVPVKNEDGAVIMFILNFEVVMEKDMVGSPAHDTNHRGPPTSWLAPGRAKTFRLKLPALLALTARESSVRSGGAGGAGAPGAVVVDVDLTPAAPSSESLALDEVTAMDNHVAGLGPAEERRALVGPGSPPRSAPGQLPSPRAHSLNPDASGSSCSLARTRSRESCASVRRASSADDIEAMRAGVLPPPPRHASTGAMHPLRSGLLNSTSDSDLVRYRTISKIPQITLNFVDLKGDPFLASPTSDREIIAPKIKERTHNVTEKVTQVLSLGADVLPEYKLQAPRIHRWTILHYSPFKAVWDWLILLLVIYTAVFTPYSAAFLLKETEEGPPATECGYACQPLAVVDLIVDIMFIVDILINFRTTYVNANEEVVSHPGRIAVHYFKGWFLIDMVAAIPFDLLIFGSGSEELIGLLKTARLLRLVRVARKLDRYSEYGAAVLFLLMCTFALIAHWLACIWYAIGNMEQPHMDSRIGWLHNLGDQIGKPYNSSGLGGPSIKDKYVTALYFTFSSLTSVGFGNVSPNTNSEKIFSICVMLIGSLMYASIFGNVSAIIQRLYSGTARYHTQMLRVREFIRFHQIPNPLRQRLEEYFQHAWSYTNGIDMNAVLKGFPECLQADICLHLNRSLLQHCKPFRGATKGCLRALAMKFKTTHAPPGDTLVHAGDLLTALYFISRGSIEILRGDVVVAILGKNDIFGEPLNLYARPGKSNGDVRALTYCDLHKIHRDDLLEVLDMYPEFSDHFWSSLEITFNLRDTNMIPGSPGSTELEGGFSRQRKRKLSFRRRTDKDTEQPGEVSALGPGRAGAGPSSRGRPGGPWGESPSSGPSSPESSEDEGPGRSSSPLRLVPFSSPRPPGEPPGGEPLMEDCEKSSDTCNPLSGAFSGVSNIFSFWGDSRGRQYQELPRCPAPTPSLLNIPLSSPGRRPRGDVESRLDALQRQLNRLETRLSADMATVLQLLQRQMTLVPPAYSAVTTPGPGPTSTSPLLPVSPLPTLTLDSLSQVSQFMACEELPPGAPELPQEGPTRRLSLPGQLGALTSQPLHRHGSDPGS
T1 sequence (Q14524 whole entry): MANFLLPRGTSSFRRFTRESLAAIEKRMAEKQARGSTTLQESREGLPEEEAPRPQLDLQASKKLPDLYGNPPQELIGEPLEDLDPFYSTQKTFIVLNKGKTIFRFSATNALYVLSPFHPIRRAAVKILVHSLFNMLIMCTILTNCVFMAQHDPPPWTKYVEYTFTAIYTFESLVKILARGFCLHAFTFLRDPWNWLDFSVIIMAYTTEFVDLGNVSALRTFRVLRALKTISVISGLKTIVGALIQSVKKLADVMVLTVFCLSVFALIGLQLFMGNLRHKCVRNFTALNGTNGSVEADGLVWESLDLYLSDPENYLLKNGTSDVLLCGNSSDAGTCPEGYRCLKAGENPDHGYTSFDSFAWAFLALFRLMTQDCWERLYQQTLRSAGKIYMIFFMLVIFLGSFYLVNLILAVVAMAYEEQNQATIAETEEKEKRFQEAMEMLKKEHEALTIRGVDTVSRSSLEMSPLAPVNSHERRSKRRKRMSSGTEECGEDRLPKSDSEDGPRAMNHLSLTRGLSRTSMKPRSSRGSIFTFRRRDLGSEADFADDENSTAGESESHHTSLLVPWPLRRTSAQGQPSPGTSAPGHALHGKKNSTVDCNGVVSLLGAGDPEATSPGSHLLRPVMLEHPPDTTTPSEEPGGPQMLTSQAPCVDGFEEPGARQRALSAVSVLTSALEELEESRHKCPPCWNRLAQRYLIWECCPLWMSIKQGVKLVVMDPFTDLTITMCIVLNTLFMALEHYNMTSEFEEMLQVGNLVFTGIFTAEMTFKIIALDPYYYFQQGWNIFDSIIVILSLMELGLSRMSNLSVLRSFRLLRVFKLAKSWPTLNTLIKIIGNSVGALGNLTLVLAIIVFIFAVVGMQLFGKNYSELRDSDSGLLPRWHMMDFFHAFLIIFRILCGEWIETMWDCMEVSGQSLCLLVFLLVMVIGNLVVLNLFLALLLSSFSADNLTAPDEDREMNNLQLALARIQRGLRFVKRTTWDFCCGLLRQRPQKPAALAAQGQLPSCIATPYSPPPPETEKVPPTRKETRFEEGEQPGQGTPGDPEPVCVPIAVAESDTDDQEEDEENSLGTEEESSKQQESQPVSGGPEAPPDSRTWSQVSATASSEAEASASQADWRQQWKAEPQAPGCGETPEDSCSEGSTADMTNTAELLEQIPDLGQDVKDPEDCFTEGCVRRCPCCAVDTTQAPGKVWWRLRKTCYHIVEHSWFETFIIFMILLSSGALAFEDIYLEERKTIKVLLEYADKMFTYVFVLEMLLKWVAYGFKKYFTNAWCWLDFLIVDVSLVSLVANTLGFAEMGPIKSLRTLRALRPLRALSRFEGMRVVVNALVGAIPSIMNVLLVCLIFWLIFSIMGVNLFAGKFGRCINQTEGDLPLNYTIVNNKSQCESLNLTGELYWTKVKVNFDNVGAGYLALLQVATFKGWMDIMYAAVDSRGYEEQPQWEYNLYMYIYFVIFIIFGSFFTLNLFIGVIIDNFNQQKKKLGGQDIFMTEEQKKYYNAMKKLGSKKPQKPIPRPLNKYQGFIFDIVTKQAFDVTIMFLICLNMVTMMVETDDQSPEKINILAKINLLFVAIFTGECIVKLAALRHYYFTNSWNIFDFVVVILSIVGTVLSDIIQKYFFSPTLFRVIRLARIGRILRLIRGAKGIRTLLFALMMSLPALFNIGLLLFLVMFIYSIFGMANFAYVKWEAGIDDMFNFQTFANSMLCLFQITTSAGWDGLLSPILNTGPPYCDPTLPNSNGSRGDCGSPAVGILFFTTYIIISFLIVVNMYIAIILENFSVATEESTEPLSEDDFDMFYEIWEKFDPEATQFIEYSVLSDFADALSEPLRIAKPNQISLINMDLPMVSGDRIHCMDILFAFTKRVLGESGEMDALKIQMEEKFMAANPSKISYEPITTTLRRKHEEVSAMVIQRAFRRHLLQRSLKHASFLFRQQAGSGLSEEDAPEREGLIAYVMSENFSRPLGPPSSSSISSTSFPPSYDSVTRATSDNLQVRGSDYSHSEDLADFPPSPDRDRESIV

Take `CC1=C(C(=O)O[C@@H](C)c2ccccc2)C(c2cc3ccccc3o2)n2nnnc2N1` (stereo partly drawn) [PT-059, (S)-1-phenylethyl 7-(benzofuran-2-yl)-5-methyl-4,7-dihydrotetrazolo[1,5-a]pyrimidine-6-carboxylate]: at hERG potassium channel, the “hERG Patch Clamp hERG % blk (1 μM test cmpd)” value is 10% and the “hERG Patch Clamp hERG % blk (10 μM test cmpd)” value is 66.5%. Also, in series [1], the “Late INa % blk” value is listed as 57.7%.

Take `CCOC(=O)C1=C(C)NC(C)=C(C(=O)OCC)C1c1ccc2c(c1)OCCO2` [PT-109, diethyl 4-(2,3-dihydrobenzo[b][1,4]dioxin-6-yl)-2,6-dimethyl-1,4-dihydropyridine-3,5-dicarboxylate]: at hERG potassium channel, the “hERG Patch Clamp hERG % blk (1 μM test cmpd)” value is 16% and the “hERG Patch Clamp hERG % blk (10 μM test cmpd)” value worked out at 38.5%. Moreover, the inhibition at 10 µM in series [1] is 76.5%. For the same compound, in the series on L-type calcium channel, the “CaL Plate Assay % blk (1 μM test cmpd)” value turned out to be 4% and the “CaL Plate Assay % blk (10 μM test cmpd)” value came out at 53%.

As for `CC1=C(C(=O)N2CCC(c3ccccc3)CC2)C(c2ccsc2)C2=C(CCCC2=O)N1` (stereo not shown) [PT-163, 2-methyl-3-(4-phenylpiperidine-1-carbonyl)-4-(thiophen-3-yl)-4,6,7,8-tetrahydroquinolin-5(1H)-one], on hERG potassium channel, the “hERG Patch Clamp hERG % blk (1 μM test cmpd)” value was 15% and the “hERG Patch Clamp hERG % blk (10 μM test cmpd)” value was determined as 53.5%. In addition, the “effect on late sodium current” value in series [1] is listed as “potentiated late sodium current”. For the same compound, in the series on L-type calcium channel, the “CaL Plate Assay % blk (1 μM test cmpd)” value is 5% and the “CaL Plate Assay % blk (10 μM test cmpd)” value came out at 17%.

`CC1=C(C(=O)N2CCN(c3ccccc3)CC2)C(c2ccc3ccccc3c2)C2=C(CCCC2=O)N1` (stereo not shown) [PT-165, 2-methyl-4-(naphthalen-2-yl)-3-(4-phenylpiperazine-1-carbonyl)-4,6,7,8-tetrahydroquinolin-5(1H)-one]: at hERG potassium channel, the “hERG Patch Clamp hERG % blk (1 μM test cmpd)” value stood at 30.5% and the “hERG Patch Clamp hERG % blk (10 μM test cmpd)” value was determined as 64.5%. Also, in series [1], the “effect on late sodium current” value is reported as “potentiated late sodium current”. Moreover, in the series with L-type calcium channel, the “CaL Plate Assay % blk (1 μM test cmpd)” value is on record as 0% and the “CaL Plate Assay % blk (10 μM test cmpd)” value is on record as 2%.

For the compound `CC1=C(C(=O)OCc2ccccc2)C(c2cccc3ccccc23)n2nnnc2N1Cc1nnn[nH]1` (stereo not shown) [PT-326, benzyl 4-((1H-tetrazol-5-yl)methyl)-5-methyl-7-(naphthalen-1-yl)-4,7-dihydrotetrazolo[1,5-a]pyrimidine-6-carboxylate], the inhibition at 10 µM was 32.2% in series [2] (setting [3]) and 11.6% in series [2] (setting [4]).

In the case of `CC1=C(C(=O)OCc2ccccc2)C(c2sccc2Br)n2nnnc2N1` (stereo not shown) [PT-401, benzyl 7-(3-bromothiophen-2-yl)-5-methyl-4,7-dihydrotetrazolo[1,5-a]pyrimidine-6-carboxylate], the inhibition at 10 µM came to 34.6% in series [2] (setting [3]) and 4.8% in series [2] (setting [4]).

Consider `CCOC(=O)C1=C(C)Nc2nnnn2C1c1ccccc1I` (stereo not shown) [PT-492, ethyl 7-(2-iodophenyl)-5-methyl-4,7-dihydrotetrazolo[1,5-a]pyrimidine-6-carboxylate], for which the inhibition at 10 µM was found to be 20.6% in series [2] (setting [3]) and 4.8% in series [2] (setting [4]).

For `COC(=O)C1=C(C)Nc2nnnn2C1c1ccccc1` (stereo not shown) [PT-514, methyl 5-methyl-7-phenyl-4,7-dihydrotetrazolo[1,5-a]pyrimidine-6-carboxylate], the inhibition at 10 µM in series [1] stood at 6%.

In the case of `CC1=C(C(=O)OCc2ccccc2)C(c2ccccc2-c2ccc(NS(C)(=O)=O)cc2)n2nnnc2N1` (stereo not shown) [PT-530, benzyl 5-methyl-7-(4′-(methylsulfonamido)biphenyl-2-yl)-4,7-dihydrotetrazolo[1,5-a]pyrimidine-6-carboxylate], at hERG potassium channel, the “hERG Patch Clamp hERG % blk (1 μM test cmpd)” value is 13% and the “hERG Patch Clamp hERG % blk (10 μM test cmpd)” value is 48%. In addition, in series [1], the inhibition at 10 µM came out at 88.3%.

With `CC1=C(C(=O)OCc2ccccc2Br)C(c2c(Cl)cccc2Cl)n2nnnc2N1` (stereo not shown) [PT-531, 2-bromobenzyl 7-(2,6-dichlorophenyl)-5-methyl-4,7-dihydrotetrazolo[1,5-a]pyrimidine-6-carboxylate], the inhibition at 10 µM in series [1] is 51.2%.

Take `CC1=C(C(=O)OCc2ccccc2Br)C(c2c(Cl)cccc2Cl)n2nnnc2N1Cc1nnn[nH]1` (stereo not shown) [PT-532, 2-bromobenzyl 4-((1H-tetrazol-5-yl)methyl)-7-(2,6-dichlorophenyl)-5-methyl-4,7-dihydrotetrazolo[1,5-a]pyrimidine-6-carboxylate]: the inhibition at 10 µM in series [1] amounted to 35.6%.

In the case of `COC(=O)C1=C(C)N(CC(=O)O)c2nnnn2C1c1sc2ccccc2c1Br` (stereo not shown) [PT-533, 2-(7-(3-bromobenzo[b]thiopben-2-yl)-6-(methoxycarbonyl)-5-methyltetrazolo[1,5-a]pyrimidin-4(7H)-yl)acetic acid], the “Late INa % blk” value in series [1] was 12%.

Take `COC(=O)C1=C(C)N(Cc2nnn[nH]2)c2nnnn2C1c1sc2ccccc2c1Br` (stereo not shown) [PT-534, methyl 4-((1H-tetrazol-5-yl)methyl)-7-(3-bromobenzo[b]thiophen-2-yl)-5-methyl-4,7-dihydrotetrazolo[1,5-a]pyrimidine-6-carboxylate]: the inhibition at 10 µM in series [1] turned out to be 18.2%.

On to `COC(=O)c1ccc(C2CCN(C(=O)C3=C(C)NC4=C(C(=O)CCC4)C3c3cccc4ccccc34)CC2)cc1` (stereo not shown) [PT-535, methyl 4-(1-(2-methyl-4-(naphthalen-1-yl)-5-oxo-1,4,5,6,7,8-hexahydroquinoline-3-carbonyl)piperidin-4-yl)benzoate], for which the inhibition at 10 µM in series [1] worked out at 4.2%.

“H-furo[3,4-e]pyrazolo[3,4-b]pyridin-5(4H)-one [PT-079]”: on hERG potassium channel, the “hERG Patch Clamp hERG % blk (1 μM test cmpd)” value was 57.5% and the “hERG Patch Clamp hERG % blk (10 μM test cmpd)” value is 96.5%. For the same compound, the “Late INa % blk” value in series [1] is given as 49%.

Regarding “H-indol-5-yl)phenyl)-5-methyl-4,7-dihydrotetrazolo[1,5-a]pyrimidine-6-carboxylate [PT-505]”, the “Late INa % blk” value in series [1] worked out at 69.6%.
